# Measurements published in PMC6865065 (Journal of clinical oncology : official journal of the …, 2016).
# Values joined by “and” are separate entries in the source; they are usually repeats but may differ in a detail not shown here. Equal values may be shown once. “Also recorded” adds a separate entry of the source. Read-outs that look alike come from different tables or passages of the source.
# Assays:
# serum phosphate levels = assay: Pharmacodynamics: serum phosphate levels; type: in vivo, human; conditions: BGJ398 treatment; consistently at doses ≥ 100 mg
# [1] = Pharmacokinetics: BGJ398 plasma concentrations; type: in vivo, human
# [2] = test system: patients with advanced solid tumors harboring FGFR genetic alterations
# FGFR4 = conditions: read-out: Half maximal inhibitory concentration; cited from earlier work
# [3] = test system: RT112 human tumor-derived FGFR gene fusion bladder cancer cell line; conditions: read-out: Half maximal inhibitory concentration; cited from earlier work
# [4] = test system: solid tumors harboring FGFR alterations; assay: Antitumor activity, RECIST v1.0 tumor evaluations; type: in vivo, human
# [5] = on the basis of preclinical data ref 20; cited from earlier work
# [6] = test system: patients with advanced solid tumors harboring FGFR genetic alterations; assay: Patient disposition and treatment exposure; type: in vivo
# [7] = 36 patients with FGFR1-amplified sqNSCLC, ≥ 100 mg continuously
# [8] = eight patients with FGFR3-mutated bladder/urothelial cancer, ≥ 100 mg
smiles,measurement,setting,value
"CCN1CCN(c2ccc(Nc3cc(N(C)C(=O)Nc4c(Cl)c(OC)cc(OC)c4Cl)ncn3)cc2)CC1 [BGJ398, 3-(2,6-dichloro-3,5-dimethoxy-phenyl)-1-{6-[4-(4-ethyl-piperazin-1-yl)-phenylamino]-pyrimidin-4-yl}−1-methyl-urea]",Serum phosphate levels,serum phosphate levels,increased serum phosphate levels; also recorded: Elevated serum phosphate levels
same,Increase of mean AUC from 0 to 24 hours on day 1,[1]; from 20 to 150 mg once daily,approximately nine
same,Tmax,"[1]; human, plasma, oral, Median time to reach maximum plasma concentration, after a single dose",2 to 3 h
same,Dose-limiting toxicity observed,"[2]; 100 mg, n = 1",grade 3 aminotransferase elevations; also recorded: grade 3 increases in ALT/AST
same,Dose-limiting toxicity observed,"[2]; 150 mg, n = 1 each",grade 1 corneal toxicity; also recorded: grade 3 aminotransferase elevations; also recorded: grade 3 increases in ALT/AST
same,Reversibility of DLTs,[2]; after BGJ398 interruption and/or concomitant medication,reversible
same,Patients who died while receiving treatment or within 28 days of the last dose,"[2]; all doses, N = 132",Fifteen
same,Patients experiencing DLTs,"[2]; dose-determining set, four of 34 patients, cycle 1",11.8%
same,"AE leading to discontinuation, patients","[2]; human, in vivo",13.6%
same,"AE requiring dose adjustment or interruption, patients","[2]; human, in vivo",59.1%
same,"Asymptomatic hyperphosphatemia suspected to be treatment related, patients","[2]; human, in vivo",72.7%
same,"At least one AE suspected to be treatment related, patients","[2]; human, in vivo",95.5%
same,"Eye-related AE leading to discontinuation, patients","[2]; human, in vivo",4.5%
same,"Grade 3/4 AE suspected to be treatment related, patients","[2]; human, in vivo",31.1%
same,"Grade 3/4 TEAEs, patients","[2]; human, in vivo",52.3%
same,Median time to first dose interruption,"[2]; human, in vivo",22 days
same,"Treatment-emergent AEs (TEAEs), patients","[2]; human, in vivo",99.2%
same,"Treatment-related alopecia, patients","[2]; human, in vivo",23.5%
same,"Treatment-related decreased appetite, patients","[2]; human, in vivo",28.8%
same,"Treatment-related diarrhea, patients","[2]; human, in vivo",27.3%
same,"Treatment-related fatigue, patients","[2]; human, in vivo",25.0%
same,"Treatment-related nausea, patients","[2]; human, in vivo",22.0%
same,"Treatment-related stomatitis, patients","[2]; human, in vivo",36.4%
same,Dose-limiting toxicity observed,[2]; in vivo,hyperphosphatemia
same,Deaths attributed to PD or to related AEs,[2]; of fifteen deaths,11
same,Deaths suspected to be BGJ398 related,[2]; of fifteen deaths,One
same,Maximum tolerated dose (MTD),"[2]; oral, once daily",125 mg
same,Recommended phase II dose (RP2D),"[2]; oral, once daily, 3-weeks-on/1-week-off schedule",125 mg
same,IC50,[3],0.004 µM
same,Patients continuing to receive treatment for > 8 weeks,[4]; 31 sqNSCLC patients treated at 125 mg continuously,12
same,Disease control rate (DCR: PR + SD),[4]; [7],50%
same,Patients achieving PRs (overall response rate),[4]; [7],11.1% and 11%
same,Patients with SD,[4]; [7],14 patients
same,Patients with reduced tumor burden,[4]; 85 patients treated at ≥ 100 mg with evaluable data (28 patients),32.9%
same,Time responder remained on study,"[4]; FGFR1-amplified sqNSCLC, unconfirmed PR",26.3 weeks
same,Patients with best overall response of SD,"[4]; all patients, N = 132",42
same,Tumor burden change,[4]; all three patients with FGFR2-altered cholangiocarcinoma with pre- and post-treatment assessments,reduced tumor burden
same,Patients with best response of SD,"[4]; breast cancer, ≥ 100 mg, 10 of 32 patients",31%
same,Partial responses,"[4]; doses ≥ 100 mg, FGFR1-amplified sqNSCLC and FGFR3-mutant bladder/urothelial cancer, six confirmed",seven
same,Disease control rate (DCR),[4]; [8],75%
same,Patients achieving PRs (overall response rate),[4]; [8],37.5% and 38%
same,Patients with reduced tumor burden,[4]; [8],62.5%
same,Patients with disease control,[4]; of 132 patients across all doses,49
same,Discontinuation because of death,[6]; N = 132,3.8%
same,Discontinuation because of disease progression,[6]; N = 132,67.4%
same,Discontinuation because of AEs,"[6]; human, in vivo",12.9%
